{
  "source": "patent US8030494B2",
  "about": "“Optical recording material” (Adeka Corporation, priority 2006, dated 2011)",
  "test": "Evaluation of light resistance (absorbance retention of spin-coated film after irradiation)",
  "format": "physicochemical",
  "conditions": "film spin-coated from 1% by mass 2,2,3,3-tetrafluoropropanol solution on polycarbonate plate; 55000 lux light for 100 hours; at λmax before irradiation",
  "procedure": "The compounds obtained in Preparation Examples 1 to 8 and comparative compound No. 2 were evaluated for light resistance as follows. Each of the compounds was dissolved in 2,2,3,3-tetrafluoropropanol to prepare a 1% by mass solution. The solution was applied to a 20 mm by 20 mm polycarbonate plate by spin coating at 2000 rpm for 60 seconds to prepare a specimen. The specimen was irradiated with 55000 lux light for 100 hours. The UV absorption spectra measured before and after the irradiation were compared to calculate an absorbance retention at the λmax of the UV absorption spectrum before the irradiation.",
  "data": [
    {"compound": "C[N+]1=C(/C=C/c2ccccc2)C(C)(Cc2ccccc2)c2c1ccc1ccccc21", "note": "(stereo not shown) [comparative compound No. 2]", "values": [
      {"measurement": "Absorbance Retention (%)", "value": 0, "unit": "%"}
    ]}
  ]
}
